Reference: PubChem BioAssay (NCI)
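Cultured in 96-well plates, cells were exposed to test compound for 48 hours across five concentrations. GI50 = concentration required for 50% inhibition of growth. Definition used: TGI = concentration required for complete inhibition of growth.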

Columns and labels:
Assay in all cases: DTP human tumour cell line panel, 48 h
SN12C renal = system: SN12C renal
HT29 colon = system: HT29 colon
OVCAR-5 ovarian = system: OVCAR-5 ovarian
CAKI-1 renal = system: CAKI-1 renal
K-562 leukemia = system: K-562 leukemia
HOP-62 NSCLC = system: HOP-62 NSCLC
A498 renal = system: A498 renal
HCT-116 colon = system: HCT-116 colon
IGROV1 ovarian = system: IGROV1 ovarian
TK-10 renal = system: TK-10 renal

O=C(O)C1CCC(=O)N1S(=O)(=O)c1ccccc1 (stereo not given)
TGI (SN12C renal): > 100 µM | TGI (HT29 colon): > 100 µM | TGI (OVCAR-5 ovarian): > 100 µM | TGI (CAKI-1 renal): > 100 µM | TGI (K-562 leukemia): > 100 µM | TGI (HOP-62 NSCLC): > 100 µM | TGI (A498 renal): > 100 µM | TGI (HCT-116 colon): > 100 µM | TGI (IGROV1 ovarian): > 100 µM

CC(=O)C=NCC(=O)O
TGI (SN12C renal): > 100 µM | TGI (HT29 colon): > 100 µM | TGI (OVCAR-5 ovarian): > 100 µM | TGI (CAKI-1 renal): > 100 µM | TGI (K-562 leukemia): > 100 µM | TGI (HOP-62 NSCLC): > 100 µM | TGI (A498 renal): > 100 µM | TGI (TK-10 renal): > 100 µM | TGI (HCT-116 colon): > 100 µM | TGI (IGROV1 ovarian): > 100 µM

CC(=O)OCC1=C(C(=O)O)C(c2ccc3c(c2)OCO3)c2cc3c(cc2O1)OCO3 (stereo not given)
TGI (SN12C renal): > 100 µM | TGI (HT29 colon): > 100 µM | TGI (CAKI-1 renal): > 100 µM | TGI (K-562 leukemia): > 100 µM | TGI (HOP-62 NSCLC): > 100 µM | TGI (TK-10 renal): > 100 µM | TGI (HCT-116 colon): > 100 µM | TGI (IGROV1 ovarian): > 100 µM

O=C(Nc1c(C(=O)NC2CCCCC2)[nH]c(=O)[nH]c1=O)c1ccc(Cl)cc1
TGI (SN12C renal): > 100 µM | TGI (HT29 colon): > 100 µM | TGI (OVCAR-5 ovarian): > 100 µM | TGI (CAKI-1 renal): > 100 µM | TGI (K-562 leukemia): > 100 µM | TGI (HOP-62 NSCLC): > 100 µM | TGI (TK-10 renal): > 100 µM | TGI (HCT-116 colon): > 100 µM | TGI (IGROV1 ovarian): > 100 µM

CCCC(N)C(=O)c1ccccc1 (stereo not given)
TGI (SN12C renal): > 100 µM | TGI (HT29 colon): > 100 µM | TGI (OVCAR-5 ovarian): > 100 µM | TGI (CAKI-1 renal): > 100 µM | TGI (K-562 leukemia): > 100 µM | TGI (HOP-62 NSCLC): > 100 µM | TGI (A498 renal): > 100 µM | TGI (TK-10 renal): > 100 µM | TGI (HCT-116 colon): > 100 µM | TGI (IGROV1 ovarian): > 100 µM

COc1ccc(-c2nn(-c3cccc(NC(=O)Nc4ccccc4)c3)cc2-c2ccncc2)cc1Cl
GI50 (SN12C renal): 2.39 µM | TGI (SN12C renal): 7.39 µM | GI50 (HT29 colon): 2.19 µM | TGI (HT29 colon): 4.78 µM | GI50 (OVCAR-5 ovarian): 2.5 µM | TGI (OVCAR-5 ovarian): 8.79 µM | GI50 (CAKI-1 renal): 2.97 µM | TGI (CAKI-1 renal): 9.35 µM | GI50 (K-562 leukemia): 3.49 µM | TGI (K-562 leukemia): > 100 µM | GI50 (HOP-62 NSCLC): 3.12 µM | TGI (HOP-62 NSCLC): 9.13 µM | GI50 (A498 renal): 1.17 µM | TGI (A498 renal): 3.28 µM | GI50 (IGROV1 ovarian): 2.73 µM | TGI (IGROV1 ovarian): 8.02 µM

c1ccc(N=c2nc(N3CCOCC3)ss2)cc1
TGI (SN12C renal): 28.5 µM | TGI (HT29 colon): 35.4 µM | TGI (OVCAR-5 ovarian): 52.1 µM | TGI (CAKI-1 renal): 34.5 µM | TGI (K-562 leukemia): 43.6 µM | TGI (HOP-62 NSCLC): > 100 µM | TGI (A498 renal): 79.5 µM | TGI (TK-10 renal): > 100 µM | TGI (HCT-116 colon): 27.7 µM | TGI (IGROV1 ovarian): 52.7 µM

Fc1ccc(-c2nn3c(-c4cc(C(F)(F)F)cc(C(F)(F)F)c4)nnc3s2)cc1
GI50 (SN12C renal): 2.51 µM | TGI (SN12C renal): > 50 µM | GI50 (HT29 colon): > 50 µM | TGI (HT29 colon): > 50 µM | GI50 (OVCAR-5 ovarian): > 50 µM | TGI (OVCAR-5 ovarian): > 50 µM | GI50 (K-562 leukemia): > 50 µM | TGI (K-562 leukemia): > 50 µM | GI50 (HOP-62 NSCLC): 1.2 µM | TGI (HOP-62 NSCLC): 3.35 µM | GI50 (HCT-116 colon): 1.7 µM | TGI (HCT-116 colon): > 50 µM | GI50 (IGROV1 ovarian): 1.66 µM | TGI (IGROV1 ovarian): > 50 µM

CC(=O)O[C@H]1C=CC(=O)C(C)CC1C (stereo not given in full)
TGI (SN12C renal): > 100 µM | TGI (HT29 colon): > 100 µM | TGI (OVCAR-5 ovarian): > 100 µM | TGI (CAKI-1 renal): > 100 µM | TGI (K-562 leukemia): > 100 µM | TGI (HOP-62 NSCLC): > 100 µM | TGI (A498 renal): > 100 µM | TGI (TK-10 renal): > 100 µM | TGI (HCT-116 colon): > 100 µM | TGI (IGROV1 ovarian): > 100 µM

Clc1ccc(CNc2nc(Cl)c3[nH]cnc3n2)cc1Cl
TGI (SN12C renal): > 100 µM | TGI (HT29 colon): 83.4 µM | TGI (OVCAR-5 ovarian): > 100 µM | TGI (CAKI-1 renal): 79.9 µM | TGI (K-562 leukemia): > 100 µM | TGI (HOP-62 NSCLC): 89.2 µM | TGI (A498 renal): 45.4 µM | TGI (TK-10 renal): 84.7 µM | TGI (HCT-116 colon): 60.7 µM | TGI (IGROV1 ovarian): > 100 µM

N#CC(Nc1cccc(C(F)(F)F)c1)c1ccccc1C(F)(F)F (stereo not given)
TGI (SN12C renal): 17.9 µM | TGI (HT29 colon): 28 µM | TGI (OVCAR-5 ovarian): 28.4 µM | TGI (CAKI-1 renal): 9.09 µM | TGI (K-562 leukemia): 42.4 µM | TGI (HOP-62 NSCLC): 10.8 µM | TGI (A498 renal): 34.2 µM | TGI (TK-10 renal): 27.9 µM | TGI (HCT-116 colon): 18.7 µM | TGI (IGROV1 ovarian): 38.1 µM

CCOc1ccc(/C(C=O)=C(\Cl)c2ccc(OC)c(OC)c2)cc1
TGI (SN12C renal): > 100 µM | TGI (HT29 colon): > 100 µM | TGI (CAKI-1 renal): > 100 µM | TGI (K-562 leukemia): > 100 µM | TGI (A498 renal): > 100 µM | TGI (TK-10 renal): > 100 µM | TGI (HCT-116 colon): > 100 µM | TGI (IGROV1 ovarian): > 100 µM

CCC(=O)NC(Nc1cccc(F)c1)(C(F)(F)F)C(F)(F)F
TGI (SN12C renal): > 100 µM | TGI (HT29 colon): > 100 µM | TGI (OVCAR-5 ovarian): > 100 µM | TGI (CAKI-1 renal): 93.9 µM | TGI (K-562 leukemia): > 100 µM | TGI (TK-10 renal): > 100 µM | TGI (HCT-116 colon): > 100 µM | TGI (IGROV1 ovarian): > 100 µM

O=C(Nc1ccc(Sc2ccc(N=Nc3c(O)c(S(=O)(=O)O)cc4cc(S(=O)(=O)O)ccc34)cc2)cc1)c1ccc(N=Nc2c(O)ccc3c(S(=O)(=O)O)cc(S(=O)(=O)O)cc23)cc1
TGI (SN12C renal): > 100 µM | TGI (HT29 colon): > 100 µM | TGI (OVCAR-5 ovarian): > 100 µM | TGI (CAKI-1 renal): > 100 µM | TGI (K-562 leukemia): 87.6 µM | TGI (HOP-62 NSCLC): > 100 µM | TGI (A498 renal): > 100 µM | TGI (TK-10 renal): > 100 µM | TGI (HCT-116 colon): > 100 µM | TGI (IGROV1 ovarian): > 100 µM

Cc1cc2c(C(C)C)c(O)c(O)c(C=NCCO)c2c(O)c1-c1c(C)cc2c(C(C)C)c(O)c(O)c(C=NCCO)c2c1O
TGI (SN12C renal): 9.63 µM | TGI (HT29 colon): 4.99 µM | TGI (OVCAR-5 ovarian): 9.63 µM | TGI (CAKI-1 renal): 19.5 µM | TGI (K-562 leukemia): 3.31 µM | TGI (HOP-62 NSCLC): 5.96 µM | TGI (A498 renal): 9.76 µM | TGI (TK-10 renal): 18.4 µM | TGI (HCT-116 colon): 3.03 µM | TGI (IGROV1 ovarian): 6.38 µM

NC1(C(=O)O)CCc2ccc(N(CCCl)CCCl)cc2C1 (stereo not given)
TGI (SN12C renal): > 100 µM | TGI (HT29 colon): > 100 µM | TGI (OVCAR-5 ovarian): > 100 µM | TGI (K-562 leukemia): > 100 µM | TGI (HOP-62 NSCLC): 63.5 µM | TGI (A498 renal): > 100 µM | TGI (HCT-116 colon): 1.69 µM | TGI (IGROV1 ovarian): > 100 µM
